Assay results: PMC8550792, “Evolution of kinase polypharmacology across HSP90 drug discovery” (Cell Chemical Biology, 2021)

Columns and labels:
Assay in all cases: biochemical
Type in all cases: biochemical
382 unique human kinases [1] = target: T1, 382 unique human kinases (Homo sapiens, UniProt P21802); conditions: FGFR2, 10 uM; for remaining activity at 10 µM: read-out: % Enzyme Activity (relative to DMSO controls)
T1 construct: purchased Reaction Biology (HotSpot contract assay)

382 unique human kinases [2] = target: T2, 382 unique human kinases (Homo sapiens, UniProt P50613); conditions: kinase CDK7/cyclin H, compound 10 uM; for remaining activity at 10 µM: read-out: % Enzyme Activity (relative to DMSO controls)
T2 construct: purchased Reaction Biology (HotSpot contract assay)

382 unique human kinases [3] = target: T3, 382 unique human kinases (Homo sapiens, UniProt Q8N4C8); conditions: MINK/MINK1, 10 uM; for remaining activity at 10 µM: read-out: % Enzyme Activity (relative to DMSO controls)
T3 construct: purchased Reaction Biology (HotSpot contract assay)

382 unique human kinases [4] = target: T4, 382 unique human kinases (Homo sapiens, UniProt O75716); conditions: STK16, [ATP] 5 µM, compound 10 uM; for remaining activity at 10 µM: read-out: % Enzyme Activity (relative to DMSO controls)
T4 construct: purchased Reaction Biology (HotSpot contract assay)

382 unique human kinases [5] = target: T5, 382 unique human kinases (Homo sapiens, UniProt P08631); conditions: HCK, [ATP] 30 µM
T5 construct: purchased Reaction Biology (HotSpot contract assay)

382 unique human kinases [6] = target: T6, 382 unique human kinases (Homo sapiens, UniProt P10721, D816H); conditions: c-Kit (D816H), [ATP] 5 µM, compound 10 uM; for remaining activity at 10 µM: read-out: % Enzyme Activity (relative to DMSO controls)
T6 construct: purchased Reaction Biology (HotSpot contract assay)

382 unique human kinases [7] = target: T7, 382 unique human kinases (Homo sapiens, UniProt P27448); conditions: MARK3, 10 uM; for remaining activity at 10 µM: read-out: % Enzyme Activity (relative to DMSO controls)
T7 construct: purchased Reaction Biology (HotSpot contract assay)

382 unique human kinases [8] = target: T8, 382 unique human kinases (Homo sapiens, UniProt P29323); conditions: EPHB2, [ATP] 30 µM, compound 10 uM; for remaining activity at 10 µM: read-out: % Enzyme Activity (relative to DMSO controls)
T8 construct: purchased Reaction Biology (HotSpot contract assay)
T8 sequence (P29323 19-1055): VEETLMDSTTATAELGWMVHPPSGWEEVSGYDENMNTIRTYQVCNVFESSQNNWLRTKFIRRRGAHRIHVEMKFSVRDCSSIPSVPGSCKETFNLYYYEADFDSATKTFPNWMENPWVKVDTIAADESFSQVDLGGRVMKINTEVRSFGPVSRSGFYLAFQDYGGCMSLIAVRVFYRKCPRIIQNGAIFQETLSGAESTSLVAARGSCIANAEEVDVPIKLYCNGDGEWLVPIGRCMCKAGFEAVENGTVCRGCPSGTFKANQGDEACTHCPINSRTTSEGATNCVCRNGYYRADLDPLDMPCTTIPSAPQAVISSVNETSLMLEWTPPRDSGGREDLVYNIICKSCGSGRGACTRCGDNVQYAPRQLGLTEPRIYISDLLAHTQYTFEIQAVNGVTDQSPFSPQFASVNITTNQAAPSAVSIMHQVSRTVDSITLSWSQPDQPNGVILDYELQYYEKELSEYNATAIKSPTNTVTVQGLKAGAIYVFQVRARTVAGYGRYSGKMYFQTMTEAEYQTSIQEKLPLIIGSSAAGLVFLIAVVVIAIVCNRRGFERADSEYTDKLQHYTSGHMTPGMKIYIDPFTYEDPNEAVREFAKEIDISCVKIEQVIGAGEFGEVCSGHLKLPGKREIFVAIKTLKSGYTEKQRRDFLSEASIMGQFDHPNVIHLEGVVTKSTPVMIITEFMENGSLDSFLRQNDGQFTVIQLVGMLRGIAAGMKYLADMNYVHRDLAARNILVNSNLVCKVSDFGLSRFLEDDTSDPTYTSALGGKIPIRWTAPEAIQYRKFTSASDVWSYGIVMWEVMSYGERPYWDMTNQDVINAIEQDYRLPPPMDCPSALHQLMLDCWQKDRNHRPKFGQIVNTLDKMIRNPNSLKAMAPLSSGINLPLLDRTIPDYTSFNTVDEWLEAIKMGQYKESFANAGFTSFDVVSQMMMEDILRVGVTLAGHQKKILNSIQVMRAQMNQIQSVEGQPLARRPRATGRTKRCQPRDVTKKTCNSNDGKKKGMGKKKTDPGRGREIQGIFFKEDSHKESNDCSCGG

382 unique human kinases [9] = target: T9, 382 unique human kinases (Homo sapiens, UniProt Q04912); conditions: RON/MST1R, 10 uM; for remaining activity at 10 µM: read-out: % Enzyme Activity (relative to DMSO controls)
T9 construct: purchased Reaction Biology (HotSpot contract assay)

382 unique human kinases [10] = target: T10, 382 unique human kinases (Homo sapiens, UniProt Q32MK0); conditions: MYLK3, 10 uM; for remaining activity at 10 µM: read-out: % Enzyme Activity (relative to DMSO controls)
T10 construct: purchased Reaction Biology (HotSpot contract assay)
T10 sequence (Q32MK0 1-819): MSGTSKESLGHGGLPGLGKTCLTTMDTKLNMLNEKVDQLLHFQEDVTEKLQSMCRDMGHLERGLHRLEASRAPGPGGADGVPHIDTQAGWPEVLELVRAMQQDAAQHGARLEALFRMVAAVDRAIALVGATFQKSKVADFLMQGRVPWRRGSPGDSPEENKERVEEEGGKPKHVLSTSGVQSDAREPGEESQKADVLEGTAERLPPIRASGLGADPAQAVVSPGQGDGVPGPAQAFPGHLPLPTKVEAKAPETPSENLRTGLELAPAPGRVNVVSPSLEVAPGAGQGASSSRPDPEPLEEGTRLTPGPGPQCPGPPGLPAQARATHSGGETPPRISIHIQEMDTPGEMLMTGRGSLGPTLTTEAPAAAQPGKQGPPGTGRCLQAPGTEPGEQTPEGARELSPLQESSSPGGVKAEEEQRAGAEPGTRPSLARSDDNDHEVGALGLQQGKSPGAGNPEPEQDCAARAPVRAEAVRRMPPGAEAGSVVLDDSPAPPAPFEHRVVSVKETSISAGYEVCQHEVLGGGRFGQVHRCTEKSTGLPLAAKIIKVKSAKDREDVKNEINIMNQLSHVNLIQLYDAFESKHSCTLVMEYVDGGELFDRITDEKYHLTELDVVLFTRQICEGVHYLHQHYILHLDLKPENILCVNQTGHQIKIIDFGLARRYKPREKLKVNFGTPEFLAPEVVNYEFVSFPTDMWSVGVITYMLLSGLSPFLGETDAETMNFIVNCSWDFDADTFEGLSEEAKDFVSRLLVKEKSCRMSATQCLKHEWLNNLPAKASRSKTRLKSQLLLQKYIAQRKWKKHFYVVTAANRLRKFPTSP

[11] = compound 10 uM, read-out: % Enzyme Activity (relative to DMSO controls)

T9 sequence (Q04912 25-1400): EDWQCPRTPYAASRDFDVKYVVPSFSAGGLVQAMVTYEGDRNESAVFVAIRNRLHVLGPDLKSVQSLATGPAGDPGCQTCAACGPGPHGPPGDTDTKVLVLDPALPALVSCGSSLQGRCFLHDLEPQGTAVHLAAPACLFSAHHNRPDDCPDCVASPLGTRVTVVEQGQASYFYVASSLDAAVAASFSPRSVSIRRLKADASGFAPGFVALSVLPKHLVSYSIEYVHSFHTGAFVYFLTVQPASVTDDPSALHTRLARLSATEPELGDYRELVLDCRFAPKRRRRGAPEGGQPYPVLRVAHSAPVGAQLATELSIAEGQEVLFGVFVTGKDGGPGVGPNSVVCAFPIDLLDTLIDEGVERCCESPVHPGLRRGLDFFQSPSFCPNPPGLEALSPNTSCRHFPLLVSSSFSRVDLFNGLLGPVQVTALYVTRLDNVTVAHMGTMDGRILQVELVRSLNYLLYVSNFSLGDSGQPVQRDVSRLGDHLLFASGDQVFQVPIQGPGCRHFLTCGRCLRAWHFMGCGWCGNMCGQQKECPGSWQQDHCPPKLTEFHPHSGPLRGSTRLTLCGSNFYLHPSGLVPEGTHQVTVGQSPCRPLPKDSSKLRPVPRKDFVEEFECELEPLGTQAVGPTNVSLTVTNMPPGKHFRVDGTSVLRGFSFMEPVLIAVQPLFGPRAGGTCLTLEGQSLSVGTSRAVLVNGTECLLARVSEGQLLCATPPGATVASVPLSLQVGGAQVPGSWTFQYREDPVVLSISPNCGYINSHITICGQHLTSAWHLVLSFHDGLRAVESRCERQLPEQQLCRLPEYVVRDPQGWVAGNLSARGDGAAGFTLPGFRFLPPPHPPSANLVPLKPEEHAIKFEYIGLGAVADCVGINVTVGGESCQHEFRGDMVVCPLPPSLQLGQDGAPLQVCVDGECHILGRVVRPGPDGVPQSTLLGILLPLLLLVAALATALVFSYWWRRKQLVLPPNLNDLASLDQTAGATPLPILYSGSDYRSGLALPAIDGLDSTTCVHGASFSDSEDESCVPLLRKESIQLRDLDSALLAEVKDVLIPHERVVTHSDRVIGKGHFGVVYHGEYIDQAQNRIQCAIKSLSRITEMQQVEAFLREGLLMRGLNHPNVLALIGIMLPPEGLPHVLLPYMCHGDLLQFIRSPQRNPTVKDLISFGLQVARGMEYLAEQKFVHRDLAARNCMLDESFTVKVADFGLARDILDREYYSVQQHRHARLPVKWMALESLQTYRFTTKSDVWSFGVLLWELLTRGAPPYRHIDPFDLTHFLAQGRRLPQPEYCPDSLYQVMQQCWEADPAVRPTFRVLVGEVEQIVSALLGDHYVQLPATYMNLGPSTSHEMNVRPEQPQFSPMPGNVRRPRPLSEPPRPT
T5 sequence (P08631 whole entry): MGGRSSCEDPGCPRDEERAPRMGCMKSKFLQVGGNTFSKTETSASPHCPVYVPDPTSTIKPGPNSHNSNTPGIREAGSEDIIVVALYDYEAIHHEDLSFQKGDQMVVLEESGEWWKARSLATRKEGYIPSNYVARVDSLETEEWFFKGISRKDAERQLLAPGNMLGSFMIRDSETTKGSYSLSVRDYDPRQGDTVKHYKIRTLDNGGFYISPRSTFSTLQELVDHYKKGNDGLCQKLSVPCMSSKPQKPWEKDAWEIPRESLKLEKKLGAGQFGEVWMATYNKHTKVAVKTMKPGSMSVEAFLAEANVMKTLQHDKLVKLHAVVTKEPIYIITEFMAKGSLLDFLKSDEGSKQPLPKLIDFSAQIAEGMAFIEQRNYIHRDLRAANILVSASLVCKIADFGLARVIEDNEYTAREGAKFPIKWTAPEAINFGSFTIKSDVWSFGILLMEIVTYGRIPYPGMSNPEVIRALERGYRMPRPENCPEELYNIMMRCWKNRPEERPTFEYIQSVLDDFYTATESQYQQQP
T2 sequence (P50613 whole entry): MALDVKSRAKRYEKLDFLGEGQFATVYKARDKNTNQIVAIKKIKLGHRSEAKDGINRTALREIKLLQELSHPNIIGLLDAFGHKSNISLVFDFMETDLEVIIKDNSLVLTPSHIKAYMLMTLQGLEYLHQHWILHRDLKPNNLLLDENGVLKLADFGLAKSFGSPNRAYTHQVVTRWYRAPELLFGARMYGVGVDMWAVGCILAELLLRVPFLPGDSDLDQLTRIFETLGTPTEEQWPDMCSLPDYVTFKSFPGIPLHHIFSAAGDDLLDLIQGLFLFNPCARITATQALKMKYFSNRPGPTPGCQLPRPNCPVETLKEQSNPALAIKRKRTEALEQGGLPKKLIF
T6 sequence (P10721 26-976 D816H): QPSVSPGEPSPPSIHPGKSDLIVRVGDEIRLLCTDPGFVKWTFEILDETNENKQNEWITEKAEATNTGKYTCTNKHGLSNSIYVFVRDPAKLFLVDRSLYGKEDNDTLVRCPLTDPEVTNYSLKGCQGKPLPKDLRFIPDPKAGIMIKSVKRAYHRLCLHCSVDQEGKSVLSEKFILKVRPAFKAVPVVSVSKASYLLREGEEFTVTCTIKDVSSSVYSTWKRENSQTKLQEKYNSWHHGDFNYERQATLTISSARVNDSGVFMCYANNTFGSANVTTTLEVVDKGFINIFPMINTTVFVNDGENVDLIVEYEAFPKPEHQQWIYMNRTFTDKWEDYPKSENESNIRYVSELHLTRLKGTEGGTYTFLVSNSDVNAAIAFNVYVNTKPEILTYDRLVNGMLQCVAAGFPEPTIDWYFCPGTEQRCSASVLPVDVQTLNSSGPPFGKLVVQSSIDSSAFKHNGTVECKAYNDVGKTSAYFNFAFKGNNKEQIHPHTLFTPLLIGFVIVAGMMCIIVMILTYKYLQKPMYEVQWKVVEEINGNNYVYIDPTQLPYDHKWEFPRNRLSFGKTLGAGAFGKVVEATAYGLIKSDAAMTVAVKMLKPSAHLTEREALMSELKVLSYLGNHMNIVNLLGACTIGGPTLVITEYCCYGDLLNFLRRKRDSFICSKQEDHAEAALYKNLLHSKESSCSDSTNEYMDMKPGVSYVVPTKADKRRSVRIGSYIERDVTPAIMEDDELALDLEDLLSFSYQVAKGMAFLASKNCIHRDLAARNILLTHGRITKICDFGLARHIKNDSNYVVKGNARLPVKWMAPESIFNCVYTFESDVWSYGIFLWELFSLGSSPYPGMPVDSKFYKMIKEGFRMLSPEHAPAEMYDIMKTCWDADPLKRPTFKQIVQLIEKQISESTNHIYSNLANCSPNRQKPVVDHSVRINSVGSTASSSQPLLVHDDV
T7 sequence (P27448 whole entry): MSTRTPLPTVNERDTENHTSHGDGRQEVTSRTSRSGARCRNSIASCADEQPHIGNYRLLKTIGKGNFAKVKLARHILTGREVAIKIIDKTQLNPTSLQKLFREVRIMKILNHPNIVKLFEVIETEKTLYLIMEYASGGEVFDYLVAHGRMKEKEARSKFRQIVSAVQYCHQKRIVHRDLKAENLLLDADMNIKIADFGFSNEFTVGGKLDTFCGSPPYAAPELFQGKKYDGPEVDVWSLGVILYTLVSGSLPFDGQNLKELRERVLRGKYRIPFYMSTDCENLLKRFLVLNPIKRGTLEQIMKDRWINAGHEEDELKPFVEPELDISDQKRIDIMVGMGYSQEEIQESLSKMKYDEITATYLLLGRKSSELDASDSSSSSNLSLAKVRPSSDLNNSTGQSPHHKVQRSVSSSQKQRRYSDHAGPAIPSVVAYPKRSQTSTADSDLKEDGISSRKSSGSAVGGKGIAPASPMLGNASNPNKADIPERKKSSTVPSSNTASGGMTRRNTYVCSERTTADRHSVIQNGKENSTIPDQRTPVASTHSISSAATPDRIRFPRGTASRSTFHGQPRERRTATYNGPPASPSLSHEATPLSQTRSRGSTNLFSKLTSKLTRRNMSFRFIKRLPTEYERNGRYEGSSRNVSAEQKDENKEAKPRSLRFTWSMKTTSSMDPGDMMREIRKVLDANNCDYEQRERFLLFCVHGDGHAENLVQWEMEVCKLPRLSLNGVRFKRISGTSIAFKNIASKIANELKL
T1 sequence (P21802 22-821): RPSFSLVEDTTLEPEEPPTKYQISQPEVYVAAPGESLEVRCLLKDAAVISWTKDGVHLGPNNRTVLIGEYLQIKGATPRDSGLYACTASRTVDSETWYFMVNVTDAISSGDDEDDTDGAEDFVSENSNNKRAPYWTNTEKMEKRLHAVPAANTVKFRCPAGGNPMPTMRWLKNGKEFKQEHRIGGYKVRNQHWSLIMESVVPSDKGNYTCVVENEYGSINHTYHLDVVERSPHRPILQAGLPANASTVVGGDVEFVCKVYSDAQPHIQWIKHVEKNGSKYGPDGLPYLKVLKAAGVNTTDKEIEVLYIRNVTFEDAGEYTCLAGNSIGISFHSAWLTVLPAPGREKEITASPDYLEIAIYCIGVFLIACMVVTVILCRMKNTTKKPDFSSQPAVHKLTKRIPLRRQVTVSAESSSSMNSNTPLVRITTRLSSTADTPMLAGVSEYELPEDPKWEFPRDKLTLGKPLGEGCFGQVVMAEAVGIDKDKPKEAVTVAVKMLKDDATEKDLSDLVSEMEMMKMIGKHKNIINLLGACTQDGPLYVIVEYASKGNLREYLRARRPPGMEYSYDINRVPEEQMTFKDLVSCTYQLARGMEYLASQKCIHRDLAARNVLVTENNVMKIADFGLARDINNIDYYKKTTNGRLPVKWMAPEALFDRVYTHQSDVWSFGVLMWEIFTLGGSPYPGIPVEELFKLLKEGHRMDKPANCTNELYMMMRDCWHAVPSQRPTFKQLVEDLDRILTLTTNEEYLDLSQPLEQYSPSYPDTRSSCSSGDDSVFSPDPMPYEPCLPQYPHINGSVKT
T4 sequence (O75716 whole entry): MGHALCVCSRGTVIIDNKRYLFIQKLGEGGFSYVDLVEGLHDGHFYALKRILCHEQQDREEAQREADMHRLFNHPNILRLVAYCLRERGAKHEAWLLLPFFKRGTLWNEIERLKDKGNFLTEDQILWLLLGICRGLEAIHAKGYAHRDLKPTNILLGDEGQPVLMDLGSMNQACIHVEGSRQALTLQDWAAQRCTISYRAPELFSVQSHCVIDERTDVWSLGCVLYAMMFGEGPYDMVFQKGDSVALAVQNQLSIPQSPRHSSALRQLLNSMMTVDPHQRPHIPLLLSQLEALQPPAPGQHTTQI

Question: Which remaining activity at 10 µM (382 unique human kinases [1]) does the source give for `CC(C)c1cc(-c2n[nH]c(=O)n2-c2ccc3c(ccn3C)c2)c(O)cc1O` [Ganetespib (STA9090)] here?
Answer: The remaining activity at 10 µM was 68.3%.

Question: And the remaining activity at 10 µM (382 unique human kinases [2])?
Answer: Its remaining activity at 10 µM is 95.8%.

Question: What about the remaining activity at 10 µM (382 unique human kinases [3]) of the same compound?
Answer: Its remaining activity at 10 µM is 73.6%.

Question: What does the source list for `CC(C)c1cc(-c2n[nH]c(=O)n2-c2ccc3c(ccn3C)c2)c(O)cc1O` [Ganetespib]?
Answer: remaining activity at 10 µM (382 unique human kinases [4]): 32.4%; remaining activity at 1 µM (382 unique human kinases [5]; compound 1 uM, read-out: % Enzyme Activity (relative to DMSO controls)): 77.7%; remaining activity at 10 µM (382 unique human kinases [5]; [11]): 14.5%; remaining activity at 10 µM (382 unique human kinases [6]): 46.4%; remaining activity at 10 µM (382 unique human kinases [7]): 100%; remaining activity at 10 µM (382 unique human kinases [8]): 45.3%; remaining activity at 10 µM (382 unique human kinases [9]): 106%; remaining activity at 10 µM (382 unique human kinases [10]): 100%

Question: For `CCNC(=O)c1noc(-c2cc(C(C)C)c(O)cc2O)c1-c1ccc(CN2CCOCC2)cc1` [Luminespib], which “% Enzyme Activity (relative to DMSO controls)” value (382 unique human kinases [4]) is on record?
Answer: The value was 98.01%.

Question: What about the remaining activity at 10 µM (382 unique human kinases [4]) of the same compound?
Answer: The remaining activity at 10 µM was 98.4%.

Question: And the “% Enzyme Activity (relative to DMSO controls)” value (382 unique human kinases [5]; compound 10 uM)?
Answer: The value was 95.21%.

Question: What about the remaining activity at 10 µM (382 unique human kinases [5]; [11]) of the same compound?
Answer: The remaining activity at 10 µM was 97.2%.

Question: And the “% Enzyme Activity (relative to DMSO controls)” value (382 unique human kinases [6])?
Answer: Its value is 83.99%.

Question: And the remaining activity at 10 µM (382 unique human kinases [6])?
Answer: The remaining activity at 10 µM was 84.3%.

Question: And the “% Enzyme Activity (relative to DMSO controls)” value (382 unique human kinases [7])?
Answer: Its value is 108.05%.

Question: What about the remaining activity at 10 µM (382 unique human kinases [7]) of the same compound?
Answer: Its remaining activity at 10 µM is 111%.

Question: What about the “% Enzyme Activity (relative to DMSO controls)” value (382 unique human kinases [8]) of the same compound?
Answer: The value was 61.81%.

Question: What about the remaining activity at 10 µM (382 unique human kinases [8]) of the same compound?
Answer: The remaining activity at 10 µM was 63.2%.

Question: What about the “% Enzyme Activity (relative to DMSO controls)” value (382 unique human kinases [9]) of the same compound?
Answer: The value was 94.46%.

Question: What about the remaining activity at 10 µM (382 unique human kinases [9]) of the same compound?
Answer: The remaining activity at 10 µM was 100%.

Question: And the “% Enzyme Activity (relative to DMSO controls)” value (382 unique human kinases [10])?
Answer: The value was 99.89%.

Question: And the remaining activity at 10 µM (382 unique human kinases [10])?
Answer: The remaining activity at 10 µM was 100%.

Question: How did the “% Enzyme Activity (relative to DMSO controls)” value (382 unique human kinases [1]) turn out when `CCNC(=O)c1noc(-c2cc(C(C)C)c(O)cc2O)c1-c1ccc(CN2CCOCC2)cc1` [Luminespib (AUY-922)] was run?
Answer: The value was 98.90%.

Question: What about the remaining activity at 10 µM (382 unique human kinases [1]) of the same compound?
Answer: The remaining activity at 10 µM was 99.8%.

Question: And the “% Enzyme Activity (relative to DMSO controls)” value (382 unique human kinases [2])?
Answer: The value was 84.47%.

Question: And the remaining activity at 10 µM (382 unique human kinases [2])?
Answer: The remaining activity at 10 µM was 85.3%.

Question: What about the “% Enzyme Activity (relative to DMSO controls)” value (382 unique human kinases [3]) of the same compound?
Answer: The value was 85.21%.

Question: And the remaining activity at 10 µM (382 unique human kinases [3])?
Answer: Its remaining activity at 10 µM is 86.4%.
